Assay results taken from US8546377B2 (AbbVie Inc., priority 2009, dated 2013).
pEC50, pKi: −log10 of the molar value. “Also recorded” adds a separate entry of the source. Read-outs that look alike come from different tables or passages of the source. Values belong to the compound of their own block, whether it stands above or below them.

Key:
h-5-HT6 receptor = biological target: T1, h-5-HT6 receptor (Homo sapiens, UniProt P50406); test: Human 5-HT6 receptor radioligand binding assay ([3H]-LSD, HEK293 membranes); details: for Ki: HEK293 membranes, 1 nM [3H]-lysergic acid diethylamide, 3.5 hours at room temperature, read-out: Ki (μM), 5-HT6 Agonist Site Radioligand Binding
T1 construct: expressed in transfected cells; host or cells: HEK293 cells (membrane preparation)
T1 sequence (P50406 whole entry): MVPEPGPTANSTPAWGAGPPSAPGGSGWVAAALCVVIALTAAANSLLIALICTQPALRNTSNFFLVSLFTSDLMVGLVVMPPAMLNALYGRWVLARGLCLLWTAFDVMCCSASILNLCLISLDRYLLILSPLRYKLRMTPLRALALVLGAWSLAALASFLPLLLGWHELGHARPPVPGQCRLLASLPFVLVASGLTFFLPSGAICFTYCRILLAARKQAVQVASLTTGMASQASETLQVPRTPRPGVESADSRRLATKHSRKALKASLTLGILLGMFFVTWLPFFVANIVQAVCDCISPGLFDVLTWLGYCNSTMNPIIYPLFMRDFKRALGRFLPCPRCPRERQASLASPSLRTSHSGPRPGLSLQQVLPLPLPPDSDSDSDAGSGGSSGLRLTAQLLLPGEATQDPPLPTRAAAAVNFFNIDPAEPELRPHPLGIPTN
Description: (iv) Human 5-HT6 Receptor Radioligand Binding Assay
Preparation of Membranes by Ultrasonic Treatment and Differential Centrifugation
Cells from stable clonal cell lines expressing the corresponding receptor (5-HT6) were washed with PBS (without Ca^++, Mg^++) and harvested in PBS with 0.02% EDTA. The cells were collected by centrifugation at 500 g for 10 minutes at 4° C., washed with PBS and centrifuged (500 g, 10 minutes at 4° C.). The pellets were stored at −80° C. until use. For membrane preparation, the thawed cell pellet was resuspended in ice-cold sucrose buffer (0.25 M sucrose, 10 mM HEPES (pH 7.4), 1 mM phenylmethylsulfonyl fluoride (PMSF) in DMSO, 5 μg/ml Pepstatin-A, 3 mM EDTA, 0.025% Bacitracin) and homogenized with a Branson Sonifier W-250 (Settings: Timer 4; Output Control 3; Duty Cycle constant; 2 to 3 cycles). Cell disruption was checked with the aid of a microscope. Remaining unbroken cells were pelleted at 1,000 g for 10 minutes at 4° C. The sucrose buffer supernatant was then centrifuged at 60,000 g for 1 hour at 4° C. (Beckman Ultrazentrifuge XL 80). The pellet was resuspended in 30 mL of ice-cold Tris buffer (20 mM TRIS (pH 7.4), 5 μg/mL Pepstatin A, 0.1 mM PMSF, 3 mM EDTA) by pipetting through a 10 mL serological pipet and centrifuged for 1 hour at 4° C. at 60,000 g. A final resuspension was performed in a small volume of ice-cold Tris buffer (see above) by pressing through a serological pipet followed by ultrasonic treatment with a Branson Sonifier W-250 (Settings: Timer 1; Output Control 3; Duty Cycle constant; 1 cycle). Protein concentration was determined (BCA-Kit; Pierce) and aliquots stored at −80° C. or in liquid nitrogen for long-term storage.
Receptor Binding Experiments
All receptor binding experiments were carried out in the corresponding assay buffer in a total volume of 200 μL in the presence of various concentrations of test compound (10^−5 M to 10^−9 M, tenfold serial dilution, duplicate determinations). The assays were terminated by filtration on polyethylenimine (PEI 0.1% or 0.3%) presoaked Packard Unifilter Plates (GF/C or GF/B) with a Tomtec MachIII U 96 well-plate harvester. After the plates had been dried for 2 hours at 55° C. in a drying chamber scintillation cocktail (BetaPlate Scint; PerkinElmer) was added. Radioactivity was measured in a Microbeta Trilux two hours after the addition of the scintillation mixture.
5-HT6 Receptor Binding Assay
HEK293 cells stably expressing the h-5-HT6 receptor (NCBI Reference Sequence XM 001435) were cultured in RPMI1640 medium supplemented with 25 mM HEPES, 10% fetal calf serum and 1-2 mM glutamine. The membrane preparation was performed as described above. […] On the day of the assay, the membranes were thawed, diluted in assay buffer (50 mM Tris-HCl, 5 mM CaCl2, 0.1% ascorbic acid, 10 μM pargyline, pH 7.4) to a concentration of 8 μg protein/assay and homogenized by gentle vortexing. […] Non-specific binding was defined with 1 μM methiothepin. The binding reaction was carried out for 3.5 hours at room temperature. During the incubation, the plates were shaken on a plate shaker at 100 rpm and terminated by filtration on Packard Unifilter GF/C (0.1% PEI) plates, followed by 2 wash cycles with ice-cold 50 mM Tris-HCl, 5 mM CaCl2.
Data derived from liquid scintillation counting were analyzed by iterative non-linear regression analysis with the use of the Statistical Analysis System (SAS): a program similar to “LIGAND” as described by Munson and Rodbard (Anal. Biochem. 1980, 107, 220-239). Fitting was performed according to formulae described by Feldman (Anal. Biochem. 1972, 48, 317-338). IC50, nH and Ki values were expressed as geometrical mean.
The results of the receptor binding studies are expressed as receptor binding constants Ki(5-HT6) as described herein before, and given in Table 5.

5HT2B receptors = biological target: T2, 5HT2B receptors (Homo sapiens, UniProt P41595); test: Human 5-HT2B functional assay in CHO-K1 cells (calcium flux, FLIPR); assay type: cell-based; details: for EC50: CHO-K1 cells over-expressing 5HT2B, calcium flux, read-out: EC50 (μM), 5-HT2B Agonist Activity; for Emax: CHO-K1 cells, percentage relative to the effect of serotonin, read-out: Emax (%), 5-HT2B Agonist Activity
T2 construct: expressed in transfected cells; host or cells: CHO-K1 cells
T2 sequence (P41595 whole entry): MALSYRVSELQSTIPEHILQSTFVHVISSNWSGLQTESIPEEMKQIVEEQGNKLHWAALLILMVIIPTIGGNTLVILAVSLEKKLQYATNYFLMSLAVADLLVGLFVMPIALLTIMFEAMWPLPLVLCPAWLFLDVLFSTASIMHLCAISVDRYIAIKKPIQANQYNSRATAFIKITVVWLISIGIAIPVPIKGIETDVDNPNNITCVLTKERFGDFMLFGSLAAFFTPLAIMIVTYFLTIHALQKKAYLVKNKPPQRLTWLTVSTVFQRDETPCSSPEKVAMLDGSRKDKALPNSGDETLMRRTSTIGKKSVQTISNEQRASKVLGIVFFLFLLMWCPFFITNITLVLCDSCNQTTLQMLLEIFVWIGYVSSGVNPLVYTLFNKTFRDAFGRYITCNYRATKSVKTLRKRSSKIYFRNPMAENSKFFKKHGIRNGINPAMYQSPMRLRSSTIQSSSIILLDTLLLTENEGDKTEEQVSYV
In short: (§1)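 Frozen CHO-K1 cells over-expressing receptor, serum-starved overnight, loaded with Ca4 dye plus 2.5 mM probenecid for 60 min at room temperature. FLIPR fluorescence (ex 480/em 530 nm, 25° C) recorded 3 min after compound addition; 6-point 1:10 series from 10 μM, 0.2% DMSO. Response normalized to serotonin, 4-parameter fit gives EC50; Emax as % of serotonin.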

5HT2C receptors [1] = biological target: T3, 5HT2C receptors (Homo sapiens, UniProt P28335); test: Human 5-HT2C functional assay in CHO-K1 cells (calcium flux, FLIPR); assay type: cell-based; design: expressed in transfected cells; host or cells: CHO-K1 cells; details: for Emax: percentage relative to the effect of serotonin; for EC50: CHO-K1 cells over-expressing 5HT2C, calcium flux, read-out: EC50 (μM), 5-HT2c Agonist Activity
T3 sequence (P28335 33-458): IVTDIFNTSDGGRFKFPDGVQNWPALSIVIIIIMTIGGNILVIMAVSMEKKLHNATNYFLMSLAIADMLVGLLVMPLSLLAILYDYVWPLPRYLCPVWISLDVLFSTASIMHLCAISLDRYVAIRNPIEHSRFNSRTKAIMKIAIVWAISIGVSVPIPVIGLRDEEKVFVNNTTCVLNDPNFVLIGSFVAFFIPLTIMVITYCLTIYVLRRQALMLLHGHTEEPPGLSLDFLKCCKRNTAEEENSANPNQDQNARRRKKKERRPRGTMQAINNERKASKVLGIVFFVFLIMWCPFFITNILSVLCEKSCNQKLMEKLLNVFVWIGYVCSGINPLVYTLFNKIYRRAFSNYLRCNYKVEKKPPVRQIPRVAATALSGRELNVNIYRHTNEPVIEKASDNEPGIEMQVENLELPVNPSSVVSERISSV
In short: as §1

[2] = biological target: T4, human serotonin 5-HT2c receptor (Homo sapiens, UniProt P28335); test: Human 5-HT2C receptor radioligand binding assay (agonist site, [125I](±)DOI); details: membranes of transfected CHO cells, 0.2 nM [125I](±)DOI, 15 minutes at 37° C.
T4 construct: expressed in transfected cells; host or cells: CHO cells (membrane homogenate)
T4 sequence (P28335 33-458): T3 sequence (P28335 33-458)
Description: To determine the effectiveness of compounds having a formula (I), these compounds can be evaluated in a radioligand binding assay for the agonist site of the human serotonin 5-HT2c receptor or in vitro models of cellular function.
(i) Human 5-HT2C Receptor Radioligand Binding Assay
Affinity of compounds for the agonist site of the 5-HT2c receptor in transfected CHO cells was determined in a radioligand binding assay essentially as described by Bryant, H. U., et al., Life Sciences (1996) 59(15), 1259-1268.

5HT2C receptors [3] = biological target: T3, 5HT2C receptors; test: Human 5-HT2C functional assay in 1321N1 cells (intracellular calcium, FLIPR); assay type: cell-based; design: expressed in transfected cells; host or cells: 1321N1 cells; details: for EC50: 1321N1 cells stably transfected, maximum calcium response, read-out: EC50 (μM), 5-HT2c Agonist Activity
Description: (ii) Human 5-HT2C Functional Assay in 1321N1 Cells
Functional activity was determined by testing the effect of the compounds on intracellular calcium levels in 1321N1 cells stably transfected with the human 5-HT2C receptor. Cells were seeded into 96-well plates at 50,000 cells/well and grown overnight in tissue culture medium (DMEM with Glutamax I (Invitrogen), containing 10% dFCS, 50 μg/mL Gentamicin, 400 μg/mL Geneticin) at 37° C. and 7% CO2. Growth medium was replaced by medium without dFCS for overnight incubation. Cells were loaded with a fluorescent calcium-sensitive dye in the presence of 1% probenicid according to the manufacturer's protocol (Fluo4 AM, Molecular Devices). Serial compound dilutions (final concentrations 10^−10 to 10^−5 M) were added to the cells either alone or in the presence of serotonin (10^−9 M) and the maximum calcium response was determined using a FLIPR instrument (Molecular Devices). Concentration-response curves were fitted using a four-parameter logistic equation (GraphPad Prism). The concentration at which the compound exerts half its maximal effect is named the ‘effective concentration 50’ or ‘EC50’ and is listed in Table 2.
Emax is the maximum functional response or efficacy expressed as a percentage relative to the effect of serotonin.

[4] = tested on: AMP-induced hyperactivity; test: d-Amphetamine-induced hyperlocomotion in mice; assay type: in vivo; details: test compound ip 30 minutes before d-amphetamine 2.0 mg/kg sc, FIG. 1
Text: (v) Assessment of Effects on Psychostimulant-Induced Hyperlocomotion in Mice
In both humans and experimental animals amphetamine profoundly affects motor activity, sensorimotor function, sleep, attention, aggressive and sexual behaviors, learning and memory, operant behaviors, appetite and food intake. In addition, amphetamine induces psychotic reactions in normal individuals and exacerbates symptoms of schizophrenia in patients. In experimental animals several distinct behaviors are considered to be correlates of amphetamine psychosis. For example, amphetamine-induced hyperactivity in rodents is believed to model the psychotic symptoms of schizophrenia. Reversal of these behaviors is used to predict potential antipsychotic activity of drugs in pre-clinical studies.
Male NMRI mice (5-week old, Janvier, France) or C57BL/6J mice (6-week old, Janvier, France) were group housed and allowed ad-libitum access to food and water. A 12 hour light/dark cycle was imposed with lights-on period between 0530 and 1730 hours. All testing occurred between 700 and 1300 hours. All procedures were approved by Abbott Institutional Animal Care and Use Committee (USA) or Animal Welfare Officer (Germany) and were conducted in accordance with the National Institutes of Health Guide for Care and Use of Laboratory Animals guidelines and applicable national laws in the facilities accredited by the Association for the Assessment and Accreditation of Laboratory Animal Care.
On the day of experiment, animals were brought from the animal facility into the experimental room and were allowed to acclimatize for at least 30 minutes. Animals were then placed in the test cages for a habituation period of 60 minutes. The animals were then injected ip with the test compound and returned to the test cage. 30 Minutes later, the mice were injected with d-amphetamine (2.0 mg/kg, AMP, Sigma, #A5880, sc) or phencyclidine (2.0 mg/kg, PCP, Sigma, #P3029, sc), and returned to the test cages for 90 minutes. […] The analyzed data were: fine movements, ambulations and total movements (fine+ambulations). […]

[5] = CHO-K1, read-out: Emax (%), 5-HT2c Agonist Activity, CHO-K1 cells

Structure (SMILES): CN1CCN2c3cccc(F)c3OCC[C@H]2C1 [Example 231, (4aS)-8-fluoro-3-methyl-2,3,4,4a,5,6-hexahydro-1H-pyrazino[2,1-d][1,5]benzoxazepine]
pKi (h-5-HT6 receptor): 6.07
pEC50 (5HT2B receptors): < 5.00
pEC50 (5HT2C receptors [1]): 8.40
Emax (5HT2C receptors [1]; [5]): 85%

Ki (h-5-HT6 receptor): 0.008 µM
EC50 (5HT2B receptors): > 10 µM
EC50 (5HT2C receptors [1]): > 10 µM
Structure (SMILES): O=C1NCC2CNCCN2c2ccc(NS(=O)(=O)c3cccc(C(F)(F)F)c3)cc21 (stereo not shown) [Example 184, N-(7-oxo-1,2,3,4,4a,5,6,7-octahydropyrazino[1,2-a][1,4]benzodiazepin-9-yl)-3-(trifluoromethyl)benzenesulfonamide]

EC50 (5HT2B receptors): 5 µM
Emax (5HT2B receptors): 55%
Ki [2]: 0.00071 µM
EC50 (5HT2C receptors [3]): 0.0011 µM
Emax (5HT2C receptors [3]; 1321N1 cells, percentage relative to the effect of serotonin, read-out: Emax (%), 5-HT2c Agonist Activity): 95%
EC50 (5HT2C receptors [1]): 0.0004 µM
Emax (5HT2C receptors [1]; CHO-K1 cells, read-out: Emax (%), 5-HT2c Agonist Activity): > 120%
Structure (SMILES): O=C1C[C@H]2CNCCN2c2cc(CCc3ccccc3)ccc2N1 [Example 42, (4aS)-10-(2-phenylethyl)-1,2,3,4,4a,5-hexahydropyrazino[1,2-a][1,5]benzodiazepin-6(7H)-one]
AMP-induced hyperactivity [4]: attenuated AMP-induced hyperactivity significantly and in a dose dependent manner; also recorded: concentration-dependent effects of Example 42 attenuating the affect of d-amphetamine

Structure (SMILES): Cc1cccc2c1OCC[C@H]1CNCCN21 [Example 226, (4aS)-8-methyl-2,3,4,4a,5,6-hexahydro-1H-pyrazino[2,1-d][1,5]benzoxazepine]
pKi (h-5-HT6 receptor): 5.69
pEC50 (5HT2B receptors): < 5.00
pEC50 (5HT2C receptors [1]): 9.10
Emax (5HT2C receptors [1]; [5]): 90%

Ki (h-5-HT6 receptor): 0.017 µM
EC50 (5HT2B receptors): 0.9 µM
Emax (5HT2B receptors): 90%
EC50 (5HT2C receptors [1]): > 10 µM
Structure (SMILES): O=C1CC2CNCCN2c2ccc(S(=O)(=O)c3ccccc3)cc2N1 (stereo not shown) [Example 112, 9-(phenylsulfonyl)-1,2,3,4,4a,5-hexahydropyrazino[1,2-a][1,5]benzodiazepin-6(7H)-one]

Ki (h-5-HT6 receptor): 0.821 µM
Ki [2]: 33 µM
EC50 (5HT2C receptors [3]): > 10 µM
Structure (SMILES): O=C1NCC2CN(Cc3ccccc3)CCN2c2ccc(NS(=O)(=O)c3ccccc3)cc21 (stereo not shown) [Example 47, N-(3-benzyl-7-oxo-1,2,3,4,4a,5,6,7-octahydropyrazino[1,2-a][1,4]benzodiazepin-9-yl)benzenesulfonamide]

Ki (h-5-HT6 receptor): 0.025 µM
EC50 (5HT2C receptors [1]): > 100 µM
Structure (SMILES): O=C1CC2CNCCN2c2ccc(NS(=O)(=O)c3ccccc3)cc2N1 (stereo not shown) [Example 76, N-(6-oxo-1,2,3,4,4a,5,6,7-octahydropyrazino[1,2-a][1,5]benzodiazepin-9-yl)benzenesulfonamide]
